In publication doi:10.1101/2025.08.05.668571v1, “Preliminary Study on the Mechanisms of Cytokinin and Its Receptor Binding Diversity” (biorxiv, 2025):

Molecular target: T1, AHK4^CD (6×His-AHK4^CD-GFP) (Arabidopsis thaliana, UniProt Q9C5U0)
T1 construct: extracellular CHASE domain, residues 126-395; N-terminal 6×His via linker, C-terminal GFP, tags kept; pRSF-Duet, E. coli Rosetta (BL21), Ni-NTA
T1 sequence (Q9C5U0 149-418): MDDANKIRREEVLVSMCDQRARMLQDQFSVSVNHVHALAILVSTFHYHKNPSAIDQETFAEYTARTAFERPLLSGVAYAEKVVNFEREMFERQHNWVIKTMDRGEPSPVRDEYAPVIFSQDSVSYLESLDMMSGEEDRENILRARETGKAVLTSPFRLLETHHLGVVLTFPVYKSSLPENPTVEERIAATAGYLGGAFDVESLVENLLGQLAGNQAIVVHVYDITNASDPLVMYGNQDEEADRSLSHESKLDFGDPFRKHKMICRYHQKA
Assay: microscale thermophoresis (MST), GFP-tagged target
Type: binding

Row | Kd [nM] | SMILES
1 | 540 ± 262 | CC(C)=CCNc1ncnc2nc[nH]c12 [2iP]
2 | 27.7 ± 20.7 | c1ccc(CNc2ncnc3nc[nH]c23)cc1 [6-BA]
